Data published in US9714266B2, “Estra-1,3,5(10),16-tetraene-3-carboxamides for inhibition of 17β-hydroxysteroid dehydrogenase (AKR1C3)” (priority 2013, dated 2017).
Values after ≈ are worked out from the molar mass of the structure shown. Values joined by “and” are separate entries in the source; they are usually repeats but may differ in a detail not shown here. Equal values may be shown once. Read-outs that look alike come from different tables or passages of the source.

What was measured:
AKR1C3 [1] = target: T1, AKR1C3 (Homo sapiens (Human), UniProt P42330); test: AKR1C3 enzyme assay (coumberone reduction, fluorescence); assay type: biochemical; conditions: recombinant human AKR1C3, coumberone 0.3 μM, NADPH 10 μM; read-out: AKR1C3 enzyme inhibition IC50
T1 sequence (P42330 whole entry): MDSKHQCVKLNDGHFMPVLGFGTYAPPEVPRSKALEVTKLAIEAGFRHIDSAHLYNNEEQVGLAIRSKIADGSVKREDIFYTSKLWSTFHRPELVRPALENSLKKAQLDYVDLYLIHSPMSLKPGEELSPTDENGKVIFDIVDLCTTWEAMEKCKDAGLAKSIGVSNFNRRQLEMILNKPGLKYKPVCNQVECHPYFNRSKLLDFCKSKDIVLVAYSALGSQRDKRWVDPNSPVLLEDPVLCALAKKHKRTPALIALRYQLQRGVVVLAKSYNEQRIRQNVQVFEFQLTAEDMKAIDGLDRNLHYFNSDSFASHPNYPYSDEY
Description: The AKR1C3-inhibitory action of the substances of this invention was measured in the AKR1C3 assay described in the paragraphs which follow. Essentially, the enzyme activity is measured by quantifying the coumberol formed from coumberone ([…]., and […]. AM. CHEM. SOC. 130, 14123-14128 (2008) […]., Bauman, D. R., Penning, T. M., and […]., Proc. Natl. Acad. Sci. USA 103, 13304-13309 (2006)). In this assay, the increase in the highly fluorescent coumberol can be determined by NADPH (nicotinamide adenine dinucleotide phosphate)-dependent reduction of the nonfluorescent coumberone by AKR1C3. […] NM_003739). This was expressed as the GST (glutathione S-transferase) fusion protein in E. coli and purified by means of glutathione-Sepharose affinity chromatography. The GST was removed by thrombin digestion with subsequent size exclusion chromatography (Dufort, I., Rheault, P., Huang, X F., Soucy, P., and Luu-The, V., Endocrinology 140, 568-574 (1999)). […] The concentration of the AKR1C3 was matched to the respective activity of the enzyme preparation and set such that the assay worked within the linear range. Typical concentrations were in the region of 1 nM. The reaction was stopped by adding 5 μl of a stop solution consisting of the inhibitor EM-1404 [F. Labrie et al. U.S. Pat. […] Subsequently, the fluorescence of coumberol was measured at 520 nm (excitation at 380 nm) with a suitable measuring instrument (Pherastar from BMG Labtechnologies).

[2] = Kinetic solubility by laser nephelometry; assay type: physicochemical; conditions: kinetic from dmso stock
Description: The kinetic solubilities of the inventive substances were determined by laser nephelometry.
The data were recorded using the following instruments:
Liquid handling system: Hamilton Star
Nephelometer: Nepheloskan Ascent
The following chemicals and materials were used: […]
disodium hydrogenphosphate dihydrate potassium dihydrogenphosphate
Preparation of phosphate buffer pH 7.4:
• Solution 1: 9.71 g of disodium hydrogenphosphate dihydrate and • 1.65 g of potassium dihydrogenphosphate dissolved in 1 liter of water • Solution 2: 10 mg of gum arabic dissolved in 1 liter of water […]
150 ml of solution 1 and 100 ml of solution 2 were diluted with 750 ml of water.
150 μl of a 10 mM DMSO stock solution were pipetted into a plate (deep-well plate, Abgene, PP, 1.2 ml). The stock solution was diluted with DMSO, which led to a new multi-titre plate (MTP, Greiner bio-one, PS, V-Form) with eight concentrations: 10/5/2.5/1.25/0.625/0.313/0.156 and 0.078 mM. 261 μl of phosphate buffer were transferred into a further plate (96 cliniplate, UB Thermo Electron Corporation) and admixed with 9 μl of the DMSO stock solutions.
The concentration of the DMSO cosolvent was kept constant at 3%.
The plates obtained (cliniplates) were analysed in the nephelometer.

AKR1C3 [3] = target: T1, AKR1C3; test: AKR1C3 inhibition in a cell-based system (transfected HEK293 cells, coumberol fluorescence); conditions: HEK293 cells transfected with AKR1C3 expression plasmid; read-out: Cellular AKR1C3 inhibition IC50
Description: The inhibition of AKR1C3 by the substances described in this invention was measured in a cell-based assay using […] as the substrate for the AKR1C3 (Halim, M., Yee, D. J., and Sames, D., J. AM. CHEM. SOC. 130, 14123-14128 (2008) and Yee, D. J., Balsanek, V., Bauman, D. R., Penning, T. M., and Sames, D., Proc. Natl. Acad. Sci. USA 103, 13304-13309 (2006)) (cf. Example 48).
The cell system used was HEK293 cells (ATCC, USA) (cell culture medium: DMEM, 1.5 g of glucose, 10% FCS, PSG). The cells were transfected with an AKR1C3 expression plasmid (pCMV6-AC-AKR1C3, GenBank Accession No. NM_003739.4) overnight (X-tremeGENE HP, Roche). The next morning, the cells were sown into black 96-well culture plates with a cell density of 40 000 cells/well (Greiner Bio-One, Frickenhausen, Germany). 7 h later, the cells were incubated with the test substances (dissolved in 100× concentration in DMSO, final concentration between 10^−11M and 10^−5M) and […] (dissolved in cell culture medium, final concentration 5×10^−6M) overnight. The following morning, the fluorescence of coumberol was measured at 535 nm (excitation at 355 nm) with a suitable measuring instrument (Mithras, from Berthold). […] The data were normalized (transfected cells without inhibitor, only DMSO=0% inhibition; transfected cells, 10 μM EM-1404 inhibitor [F. Labrie et al. U.S. Pat. No. 6,541,463, 2003]=100% inhibition) and IC50 values were calculated by a 4-parameter fit.

[4] = phosphate buffer with 3% DMSO, aqueous buffer, phosphate buffer pH 7.4, 3% DMSO, read-out: Nephelometric solubility at pH = 7.4

| Structure (SMILES) | IC50 (AKR1C3 [1]) | solubility [2, 4] [µg/mL] | IC50 (AKR1C3 [3]) | solubility ([2]; pH 7.4, aqueous buffer) [µg/mL] |
| --- | --- | --- | --- | --- |
| CN(CC(O)CO)C(=O)c1ccc2c(c1)CC[C@@H]1[C@@H]2CC[C@]2(C)C(c3cncc(F)c3)=CC[C@@H]12 (mixture of isomers) [Example 35, N—[(RS)-2,3-dihydroxypropyl]-17-(5-fluoropyridin-3-yl)-N-methyloestra-1,3,5(10),16-tetraene-3-carboxamide] | 17 nM | 22 |  |  |
| CC1(C)CC[C@@]2(CC[C@H]3[C@@H]4CCc5cc(C(N)=O)ccc5[C@H]4CC[C@@]32C)OC1=O [EM-1404, reference compound] |  | 18 (≈ 45.5 µM) |  |  |
| C[C@]12C[C@H](F)[C@@H]3c4ccc(C(N)=O)cc4CC[C@H]3[C@@H]1CC=C2c1cncc(F)c1 [Example 7, 11β-fluoro-17-(5-fluoropyridin-3-yl)oestra-1,3,5(10),16-tetraene-3-carboxamide] | 27 nM |  | 83 nM and 150 nM |  |
| C[C@@H](CO)CCNC(=O)c1ccc2c(c1)CC[C@@H]1[C@@H]2CC[C@]2(C)C(c3cncc(F)c3)=CC[C@@H]12 [Example 12, 17-(5-fluoropyridin-3-yl)-N—[(R)-3-(hydroxymethyl)butyl]estra-1,3,5(10),16-tetraene-3-carboxamide] | 21 nM and 20 nM |  | 68 nM and 96 nM and 43 nM and 23 nM |  |
| CC(C)[C@H](CO)NC(=O)c1ccc2c(c1)CC[C@@H]1[C@@H]2CC[C@]2(C)C(c3cncc(F)c3)=CC[C@@H]12 [Example 16, 17-(5-fluoropyridin-3-yl)-N—[(R)-1-(hydroxymethyl)-2-methylpropyl]oestra-1,3,5(10),16-tetraene-3-carboxamide] | 15 nM and 42 nM |  | 97 nM and 74 nM |  |
| C[C@]12CC[C@@H]3c4ccc(C(=O)N5CCC[C@@H](O)C5)cc4CC[C@H]3[C@@H]1CC=C2c1cncc(F)c1 [Example 17, 17-(5-fluoropyridin-3-yl)oestra-1,3,5(10),16-tetraen-3-yl (R)-3-hydroxypiperidin-1-yl ketone] | 29 nM and 20 nM |  | 34 nM and 28 nM |  |
| C[C@]12CC[C@@H]3c4ccc(C(=O)NCCc5nnn[nH]5)cc4CC[C@H]3[C@@H]1CC=C2c1cncc(F)c1 [Example 21, 17-(5-fluoropyridin-3-yl)-N-[2-(1H-tetrazol-5-yl)ethyl]oestra-1,3,5(10),16-tetraene-3-carboxamide] | 5 nM |  |  | 158 (≈ 334 µM) |
| C[C@]12CC[C@@H]3c4ccc(C(=O)NCc5nnn[nH]5)cc4CC[C@H]3[C@@H]1CC=C2c1cncc(F)c1 [Example 22, 17-(5-fluoropyridin-3-yl)-N-(1H-tetrazol-5-ylmethyl)oestra-1,3,5(10),16-tetraene-3-carboxamide] | 5 nM |  |  | 153 (≈ 334 µM) |
| C[C@]12CC[C@@H]3c4ccc(C(=O)N5CCC[C@H]5c5nnn[nH]5)cc4CC[C@H]3[C@@H]1CC=C2c1cncc(F)c1 [Example 28, 17-(5-fluoropyridin-3-yl)oestra-1,3,5(10),16-tetraen-3-yl (S)-2-(1H-tetrazol-5-yl)pyrrolidin-1-yl ketone] | 9 nM |  |  | 166 (≈ 333 µM) |
| CNC(=O)[C@@H]1CCCN1C(=O)c1ccc2c(c1)CC[C@@H]1[C@@H]2CC[C@]2(C)C(c3cncc(F)c3)=CC[C@@H]12 [Example 29, 1-{[17-(5-fluoropyridin-3-yl)oestra-1,3,5(10),16-tetraen-3-yl]carbonyl}-N-methyl-L-prolinamide] | 10 nM |  |  | 24 (≈ 49.2 µM) |
| C[C@]12CC[C@@H]3c4ccc(C(=O)NC[C@H](O)CO)cc4CC[C@H]3[C@@H]1CC=C2c1cncc(F)c1 [Example 33, N—[(S)-2,3-dihydroxypropyl]-17-(5-fluoropyridin-3-yl)oestra-1,3,5(10),16-tetraene-3-carboxamide] | 4 nM and 5 nM | 80 (≈ 178 µM) |  |  |
| C[C@@H](O)CNC(=O)c1ccc2c(c1)CC[C@@H]1[C@@H]2CC[C@]2(C)C(c3cncc(F)c3)=CC[C@@H]12 [Example 38, 17-(5-fluoropyridin-3-yl)-N—[(R)-2-hydroxypropyl]oestra-1,3,5(10),16-tetraene-3-carboxamide] | 4 nM |  |  | 145 (≈ 334 µM) |
| C[C@@H](CO)NC(=O)c1ccc2c(c1)CC[C@@H]1[C@@H]2CC[C@]2(C)C(c3cncc(F)c3)=CC[C@@H]12 [Example 40, 17-(5-fluoropyridin-3-yl)-N—[(S)-1-(hydroxymethyl)ethyl]oestra-1,3,5(10),16-tetraene-3-carboxamide] |  |  |  | 145 (≈ 334 µM) |
| CC1(CNC(=O)c2ccc3c(c2)CC[C@@H]2[C@@H]3CC[C@]3(C)C(c4cncc(F)c4)=CC[C@@H]23)COC1 [Example 43, 17-(5-fluoropyridin-3-yl)-N-[(3-methyloxetan-3-yl)methyl]oestra-1,3,5(10),16-tetraene-3-carboxamide] | 7 nM |  |  | 154 (≈ 334 µM) |
| C[C@]12CC[C@@H]3c4ccc(C(=O)NCCOCCO)cc4CC[C@H]3[C@@H]1CC=C2c1cncc(F)c1 [Example 46, 17-(5-fluoropyridin-3-yl)-N-[2-(2-hydroxyethoxy)ethyl]oestra-1,3,5(10),16-tetraene-3-carboxamide] | 6 nM |  |  |  |
| C[C@]12CC[C@@H]3c4ccc(C(=O)NCCS(N)(=O)=O)cc4CC[C@H]3[C@@H]1CC=C2c1cncnc1 [Example 47, 17-(pyrimidin-5-yl)-N-(2-sulphamoylethyl)oestra-1,3,5(10),16-tetraene-3-carboxamide] | 119 nM |  |  |  |
